Earlier results in publication PMC1657008, “Rotavirus NSP4_114-135 peptide has no direct, specific effect on chloride transport in rabbit brush-border membrane” (Virology Journal, 2006).

System: neonatal mouse intestinal mucosal sheets
Conditions: added to neonatal mouse intestinal mucosal sheets; ref [1]
Text: However, the cellular and molecular bases by which rotavirus and NSP4 induce a moderate net chloride secretion remain unclear.

Compound: C[N+](C)(C)CCOC(N)=O [carbachol]
- Cl- secretory currents: transient, small and almost identical increases in Cl^- secretory currents
